Results on one compound are retold here after patent US20090048194A1, “Vagal Afferent Neurons as Targets for Treatment” (Janssen Pharmaceutica N.V., priority 2005, published 2009).

For assay [1], the system named is Nb-infected nodose neurons. In words: Patch clamp recording of octreotide on dissociated Nb-infected nodose neurons. The assay is classed as cell-based, Balb/c mice. To be noted: for effect on number of action potentials at 2× rheobase: infected nodose neurons. On the procedure: (§1) Balb/c mice were injected intraperitoneally with the retrograde labelling agent cholera toxin B 488 3-7 days prior to experiments. Mice were then anaesthetized with ketamine/xylazine, the spinal cord removed and DRG neurons isolated (T10-T13) for electrophysiological recordings 18-24 hours after their dissociation and incubation, and mounted on the stage of an inverted microscope (Leica DMIRE2)) for both bright-field and fluorescence observation. Cholera toxin labelled neurons were identified by their green fluorescence under the N3 filter system (Leica). Whole cell currents and voltage clamp experiments were performed by using MultiClamp 7A amplifier and digitized with a DigiData 1322A converter (Axon Instruments). Stimulation and data acquisition were obtained by the pClamp 9 program (Axon Instruments). Signals were sampled at 10 kHz or 20 kHz, and low-pass filtered at 4 KHz. The series resistance was compensated. Neurons were excluded from analysis if the seal resistance or access resistance was unstable, or if they fired spontaneous action potentials.
(§2) Borosilicate glass (Harvard) was pulled with a P97 micropipette puller (Sutter, Calif.), and fire polished by a M 200 microforge (World Precision Instrument) to a tip resistance of 5-10 MΩ. A silver-silver chloride pellet (world Precision Instrument) was placed in the recording dish as the reference electrode. The normal extracellular Kreb's solution contained (in mM): NaCl 118.0, KCl 4.7, NaH2PO4 1.0, NaHCO3 25.0, MgSO4 1.2, CaCl2 2.5, D-Glucose 11.1, with pH adjusted to 7.3 by using NaOH. The normal intracellular solution contained (in mM): HEPES 10.0, KCl 130.0, MgCl2 1.0, CaCl2 1.0, EGTA 2.0, K2ATP 2, Na3GTP 0.2, titrated with KOH to pH 7.25. The extracellular solution for isolating TTX-resistance Na currents composed of (in mM): NaCl 145.0, KCl 4.8, HEPES 10.0, MgCl2 1.0, CaCl2 2.5, D-glucose 11.1, TTX 0.0003, CdCl 0.5, 4-AP 1.0, TEA-Cl 5.0, CsCl 2.0, pH adjusted to 7.3 by using NaOH, and the corresponding intracellular solution was (in mM): EPES 10.0, CsCl 130.0, MgCl2 1.0, CaCl2 1.0, EGTA 2.0, K2ATP 2.0, Na3GTP 0.2, pH adjusted to 7.25 by using CsOH. All experiments were performed at temperature of 30° C.-33° C.
(§3) Data were analyzed by using pClamp 9 software (Axon Instruments). Neurons were recorded in both current-clamp and voltage-clamp configurations. Voltage clamp recordings were used to generate current-voltage relationships for cells. Current clamp recordings were used to determine the rheobase for action potential firing of neurons. The number of action potentials elicited at 2× rheobase was subsequently assessed in current clamp mode.
(§4) Nodose neurons were dissociated and cultured in preparation for patch clamp experiments as has been described elsewhere. These nodose neurons were either obtained from Balb/c mice 21 days after infection with Nb or from sham mice, thus enabling a comparison of the effects of octreotide on both sham and Nb-infected nodose neurons.
(§5) Octreotide (1 μM) was applied to individual neurons via a fast perfusion system. Octreotide's effects were recorded on the cell's resting membrane potential (RMP) and the number of action potentials fired at 2× rheobase of each neuron.
Background: In patch-clamp work, channel activity is measured electrically.

A further assay relates to sham nodose neurons. In words: Patch clamp recording of octreotide on dissociated sham nodose neurons. It is filed as cell-based, Balb/c mice. To be noted: for effect on number of action potentials at 2× rheobase: sham nodose neurons. The protocol:
as §1, §2, §3, §4, §5

[2] abbreviates: octreotide 1 μM, listed as octreotide.

`C[C@@H](O)[C@@H]1NC(=O)[C@H](CCCCN)NC(=O)[C@@H](Cc2c[nH]c3ccccc23)NC(=O)[C@H](Cc2ccccc2)NC(=O)[C@@H](NC(=O)[C@H](N)Cc2ccccc2)CSSC[C@@H](C(=O)N[C@H](CO)[C@@H](C)O)NC1=O` [Octreotide, octreotide]: the “difference between the effect of octreotide on sham and infected neurons (action potentials at 2× rheobase)” value in assay [1] (1 μM octreotide, sham vs infected, FIG. 24) is on record as “no significant difference”. The “effect on RMP” value was “no significant effect” in assay [1] (infected neurons, octreotide 1 μM) and “no significant effect” in the assay on sham nodose neurons (sham neurons, octreotide 1 μM). Besides, the “resting membrane potential (RMP)” value in assay [1] (infected neurons, octreotide 1 μM, n=25) was −51.7±2.1 mV; in the assay with sham nodose neurons (sham neurons, octreotide 1 μM, n=27), −54.7±2.1 mV. Moreover, the “number of action potentials evoked at 2× rheobase (FIG. 23 example)” value stood at 2 action potentials in assay [1] (infected nodose neuron, after 1 μM octreotide, control in Krebs 9) and 1 action potential in the assay with sham nodose neurons (sham nodose neuron, after 1 μM octreotide, control in Krebs 2). Also, the “effect on number of action potentials at 2× rheobase” value in assay [1] (octreotide 1 μM) is “reduced the number of action potentials”; in assay [1] (setting [2]) it was “reduces the number of action potentials”; in the assay on sham nodose neurons (octreotide 1 μM) it was “reduced the number of action potentials”; in the assay with sham nodose neurons (setting [2]), “reduces the number of action potentials”.
